Data: ChEMBL document CHEMBL3431459, “Roche carnitine palmitoyltransferase modulator screening data (supplementary data associated with the publication CHEMBL2216752)”
Values after ≈ are worked out from the molar mass of the structure shown.

Experiments:
[1] = SUPPLEMENTARY: PAMPA permeability assay; assay type: physicochemical; settings: read-out: Permeability
[2] = SUPPLEMENTARY: Lipophilicity (log D) Determination by high-throughput shake-flask; assay type: physicochemical; settings: octanol/water
[3] = SUPPLEMENTARY: Lyophilisation Solubility Assay (LYSA); assay type: physicochemical; settings: read-out: Kinetic_solubility
[4] = biological target: T1, Carnitine O-palmitoyltransferase 1, muscle isoform (Homo sapiens, UniProt Q92523); experiment: SUPPLEMENTARY: Inhibition of Carnitine palmitoyltransferase 1, muscle isoform; set-up: species or system Muscle tissue
T1 sequence (Q92523 whole entry): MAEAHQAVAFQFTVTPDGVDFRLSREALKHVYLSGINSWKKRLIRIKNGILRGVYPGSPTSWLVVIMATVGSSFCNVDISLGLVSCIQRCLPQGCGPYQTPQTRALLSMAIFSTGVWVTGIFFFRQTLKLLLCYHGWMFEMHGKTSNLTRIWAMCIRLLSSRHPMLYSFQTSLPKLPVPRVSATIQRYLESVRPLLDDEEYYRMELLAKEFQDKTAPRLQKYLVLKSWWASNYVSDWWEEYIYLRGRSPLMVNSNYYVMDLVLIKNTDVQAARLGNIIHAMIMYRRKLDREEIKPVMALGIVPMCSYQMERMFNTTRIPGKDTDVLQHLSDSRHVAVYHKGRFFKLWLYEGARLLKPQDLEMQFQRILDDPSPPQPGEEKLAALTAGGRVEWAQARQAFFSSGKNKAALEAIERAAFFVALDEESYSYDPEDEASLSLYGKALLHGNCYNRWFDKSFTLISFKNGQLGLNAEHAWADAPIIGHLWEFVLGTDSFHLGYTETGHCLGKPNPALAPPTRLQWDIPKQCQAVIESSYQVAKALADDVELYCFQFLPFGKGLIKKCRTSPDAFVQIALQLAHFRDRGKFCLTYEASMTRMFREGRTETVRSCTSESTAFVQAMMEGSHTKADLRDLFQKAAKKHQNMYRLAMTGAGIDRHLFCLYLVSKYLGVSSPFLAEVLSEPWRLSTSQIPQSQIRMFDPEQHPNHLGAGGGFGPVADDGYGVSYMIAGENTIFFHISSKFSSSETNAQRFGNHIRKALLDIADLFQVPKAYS

[5] = biological target: T2, Carnitine O-palmitoyltransferase 1, liver isoform (Rattus norvegicus, UniProt P32198); experiment: (§1) SUPPLEMENTARY: Inhibition of Carnitine palmitoyltransferase 1, liver isoform
T2 sequence (P32198 whole entry): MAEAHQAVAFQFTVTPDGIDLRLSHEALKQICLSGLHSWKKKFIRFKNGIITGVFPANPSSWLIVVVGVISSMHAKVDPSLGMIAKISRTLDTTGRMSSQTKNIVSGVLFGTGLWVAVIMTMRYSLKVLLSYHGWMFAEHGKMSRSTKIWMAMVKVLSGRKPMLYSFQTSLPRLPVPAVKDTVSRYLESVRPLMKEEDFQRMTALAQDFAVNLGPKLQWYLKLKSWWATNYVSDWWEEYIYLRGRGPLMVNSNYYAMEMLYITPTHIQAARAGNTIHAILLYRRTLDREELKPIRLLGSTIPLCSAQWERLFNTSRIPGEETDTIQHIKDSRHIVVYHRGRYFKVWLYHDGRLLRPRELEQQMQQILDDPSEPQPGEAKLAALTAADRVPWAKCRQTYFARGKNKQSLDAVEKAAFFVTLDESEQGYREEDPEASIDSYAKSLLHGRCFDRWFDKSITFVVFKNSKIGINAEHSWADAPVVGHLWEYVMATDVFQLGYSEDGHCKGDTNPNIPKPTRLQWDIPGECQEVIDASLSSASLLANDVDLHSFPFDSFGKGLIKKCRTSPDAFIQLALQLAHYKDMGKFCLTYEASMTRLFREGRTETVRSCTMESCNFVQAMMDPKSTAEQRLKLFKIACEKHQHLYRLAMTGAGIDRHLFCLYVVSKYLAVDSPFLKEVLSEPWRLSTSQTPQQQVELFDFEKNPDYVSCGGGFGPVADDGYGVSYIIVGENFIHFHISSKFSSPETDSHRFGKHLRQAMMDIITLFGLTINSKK

[6] = biological target: T3, Carnitine O-palmitoyltransferase 1, liver isoform (Homo sapiens, UniProt P50416); experiment: as §1
T3 sequence (P50416 whole entry): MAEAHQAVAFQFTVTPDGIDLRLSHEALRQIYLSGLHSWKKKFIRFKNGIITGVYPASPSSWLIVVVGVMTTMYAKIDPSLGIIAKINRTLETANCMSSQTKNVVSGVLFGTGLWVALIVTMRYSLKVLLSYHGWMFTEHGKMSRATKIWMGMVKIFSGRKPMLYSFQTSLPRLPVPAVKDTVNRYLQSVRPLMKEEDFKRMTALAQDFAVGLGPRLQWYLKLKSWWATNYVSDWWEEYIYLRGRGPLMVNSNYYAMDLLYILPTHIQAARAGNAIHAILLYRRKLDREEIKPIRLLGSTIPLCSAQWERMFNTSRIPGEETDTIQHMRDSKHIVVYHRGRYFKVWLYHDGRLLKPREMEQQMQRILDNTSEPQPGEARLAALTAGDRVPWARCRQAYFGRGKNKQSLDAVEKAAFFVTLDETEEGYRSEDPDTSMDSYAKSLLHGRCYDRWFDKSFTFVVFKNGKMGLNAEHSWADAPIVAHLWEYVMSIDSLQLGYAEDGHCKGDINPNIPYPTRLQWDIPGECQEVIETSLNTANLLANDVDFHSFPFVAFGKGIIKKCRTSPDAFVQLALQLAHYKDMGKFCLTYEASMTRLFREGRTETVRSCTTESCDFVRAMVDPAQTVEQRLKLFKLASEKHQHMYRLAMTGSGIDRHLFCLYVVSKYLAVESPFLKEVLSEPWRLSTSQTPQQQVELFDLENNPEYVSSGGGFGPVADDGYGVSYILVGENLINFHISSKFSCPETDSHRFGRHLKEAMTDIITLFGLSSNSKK

[7] = biological target: T4, Carnitine O-palmitoyltransferase 2, mitochondrial (Homo sapiens, UniProt P23786); experiment: (§2) SUPPLEMENTARY: Inhibition of Carnitine palmitoyltransferase 2
T4 sequence (P23786 whole entry): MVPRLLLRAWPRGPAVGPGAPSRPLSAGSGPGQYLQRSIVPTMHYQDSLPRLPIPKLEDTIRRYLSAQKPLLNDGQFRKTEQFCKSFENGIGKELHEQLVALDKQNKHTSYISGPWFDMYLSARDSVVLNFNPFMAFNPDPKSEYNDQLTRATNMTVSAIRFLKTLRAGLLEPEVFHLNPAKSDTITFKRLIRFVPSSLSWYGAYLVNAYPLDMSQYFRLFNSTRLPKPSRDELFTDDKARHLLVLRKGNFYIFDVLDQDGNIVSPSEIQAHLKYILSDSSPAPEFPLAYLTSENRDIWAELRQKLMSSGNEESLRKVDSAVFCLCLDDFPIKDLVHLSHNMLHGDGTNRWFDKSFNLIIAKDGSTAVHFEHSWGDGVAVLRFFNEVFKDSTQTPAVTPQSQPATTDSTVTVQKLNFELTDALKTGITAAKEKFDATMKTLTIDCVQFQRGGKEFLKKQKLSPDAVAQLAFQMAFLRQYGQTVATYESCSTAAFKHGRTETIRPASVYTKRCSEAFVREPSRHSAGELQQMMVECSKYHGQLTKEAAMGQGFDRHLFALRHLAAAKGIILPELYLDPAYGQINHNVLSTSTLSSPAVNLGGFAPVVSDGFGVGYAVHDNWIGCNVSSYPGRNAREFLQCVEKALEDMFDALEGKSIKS

[8] = biological target: T5, Carnitine O-palmitoyltransferase 2, mitochondrial (Rattus norvegicus, UniProt P18886); experiment: as §2
T5 sequence (P18886 whole entry): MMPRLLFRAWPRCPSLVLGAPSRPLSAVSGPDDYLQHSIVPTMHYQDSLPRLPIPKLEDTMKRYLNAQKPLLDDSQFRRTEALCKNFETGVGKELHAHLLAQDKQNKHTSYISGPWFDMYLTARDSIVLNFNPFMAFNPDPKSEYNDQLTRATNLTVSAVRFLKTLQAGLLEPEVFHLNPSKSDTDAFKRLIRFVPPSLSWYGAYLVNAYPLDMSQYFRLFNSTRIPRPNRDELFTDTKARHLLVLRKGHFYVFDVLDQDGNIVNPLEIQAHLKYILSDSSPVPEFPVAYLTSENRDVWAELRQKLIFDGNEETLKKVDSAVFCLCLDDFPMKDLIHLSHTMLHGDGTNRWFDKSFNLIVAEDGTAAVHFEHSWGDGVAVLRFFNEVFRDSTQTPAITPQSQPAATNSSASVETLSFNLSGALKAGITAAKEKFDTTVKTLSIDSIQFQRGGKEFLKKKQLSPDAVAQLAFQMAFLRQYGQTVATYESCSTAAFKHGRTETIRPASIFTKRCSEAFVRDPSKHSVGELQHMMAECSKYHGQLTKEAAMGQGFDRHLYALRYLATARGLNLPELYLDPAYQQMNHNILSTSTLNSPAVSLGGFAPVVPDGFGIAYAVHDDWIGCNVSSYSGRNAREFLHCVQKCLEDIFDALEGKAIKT

## COc1ccc(Cl)cc1S(=O)(=O)N[C@@H]1CCCN(C(=O)COc2ccccc2)C1
[1]
  Papp: 1.36 ×10⁻⁶ cm/s
[2]
  logD: 2.59
[3]
  solubility kinetic: 64 µg/mL (≈ 146 µM)
[4]
  IC50: 51800 nM
[5]
  IC50: 95.4 nM
[6]
  IC50: 134 nM
[7]
  IC50: 21000 nM
[8]
  IC50: > 100000 nM

## COc1ccc(Cl)cc1S(=O)(=O)N1COc2ccc(C(=O)Nc3ccc(C(=O)O)c(Cl)c3)cc21
[1]
  Papp: 1.66 ×10⁻⁶ cm/s
[2]
  logD: 0.09
[3]
  solubility kinetic: > 697 µg/mL
[4]
  IC50: 2280 nM
[5]
  IC50: 182 nM
[6]
  IC50: 208 nM
[7]
  IC50: 9730 nM
[8]
  IC50: 16000 nM

## O=C(COc1ccccc1)N1CCCC[C@@H]1c1nc(-c2cc[nH]c(=O)c2)no1
[1]
  Papp: 5.39 ×10⁻⁶ cm/s
[2]
  logD: 1.9
[3]
  solubility kinetic: 275 µg/mL (≈ 723 µM)
[4]
  IC50: > 100000 nM
[5]
  IC50: 337 nM
[6]
  IC50: 83.4 nM
[7]
  IC50: > 100000 nM
[8]
  IC50: 88700 nM

## Nc1cc(-c2n[nH]c([C@H]3CCCCN3C(=O)COc3ccccc3)n2)ccn1
[1]
  Papp: 2.77 ×10⁻⁶ cm/s
[2]
  logD: 1.95
[3]
  solubility kinetic: 281 µg/mL (≈ 743 µM)
[4]
  IC50: > 100000 nM
[5]
  IC50: 1330 nM
[6]
  IC50: 123 nM
[7]
  IC50: > 100000 nM
[8]
  IC50: > 100000 nM

## COc1ccc(Cl)cc1S(=O)(=O)N1CCc2c(C)cc(C(=O)Nc3ccc(C(=O)O)c(F)c3)cc21
[1]
  Papp: 1.65 ×10⁻⁶ cm/s
[2]
  logD: 0.77
[3]
  solubility kinetic: 60 µg/mL (≈ 116 µM)
[4]
  IC50: 3680 nM
[5]
  IC50: 96.2 nM
[6]
  IC50: 71 nM
[7]
  IC50: 286 nM
[8]
  IC50: 684 nM

## COc1ccc(Cl)cc1S(=O)(=O)N1CCc2c(C)cc(C(=O)Nc3ccc(C(=O)O)cc3)cc21
[1]
  Papp: 2.01 ×10⁻⁶ cm/s
[2]
  logD: 2.58
[3]
  solubility kinetic: 13 µg/mL (≈ 26 µM)
[4]
  IC50: 5460 nM
[5]
  IC50: 56 nM
[6]
  IC50: 77.5 nM
[7]
  IC50: 326 nM
[8]
  IC50: 345 nM

## COc1ccc(Cl)cc1S(=O)(=O)N1CCc2c(C)cc(C(=O)Nc3ccc(C(=O)O)c(Cl)c3)cc21
[1]
  Papp: 1.52 ×10⁻⁶ cm/s
[2]
  logD: 0.66
[3]
  solubility kinetic: 311 µg/mL (≈ 581 µM)
[4]
  IC50: 3530 nM
[5]
  IC50: 157 nM
[6]
  IC50: 66.1 nM
[7]
  IC50: 591 nM
[8]
  IC50: 967 nM

## CN(C)C(=O)c1ccc(-c2noc(C3C4CC4CN3C(=O)COc3ccccc3)n2)cc1 (stereo not given)
[1]
  Papp: 4.37 ×10⁻⁶ cm/s
[2]
  logD: 2.17
[3]
  solubility kinetic: 147 µg/mL (≈ 340 µM)
[4]
  IC50: > 100000 nM
[5]
  IC50: 1090 nM
[6]
  IC50: 165 nM
[7]
  IC50: 47100 nM
[8]
  IC50: 57100 nM

## COc1ccc(Cl)cc1S(=O)(=O)N1CCNc2ccc(C(=O)Nc3ccc(C(=O)O)c(F)c3)cc21
[1]
  Papp: 0.23 ×10⁻⁶ cm/s
[2]
  logD: 0.07
[3]
  solubility kinetic: 58 µg/mL (≈ 112 µM)
[4]
  IC50: 6420 nM
[5]
  IC50: 162 nM
[6]
  IC50: 112 nM
[7]
  IC50: 41600 nM
[8]
  IC50: > 100000 nM

## NC(=O)c1cncc(-c2noc([C@H]3COCCN3C(=O)COc3ccccc3)n2)c1
[1]
  Papp: 2.86 ×10⁻⁶ cm/s
[2]
  logD: 1.05
[3]
  solubility kinetic: 191 µg/mL (≈ 467 µM)
[4]
  IC50: > 100000 nM
[5]
  IC50: 1250 nM
[6]
  IC50: 168 nM
[7]
  IC50: > 100000 nM
[8]
  IC50: > 100000 nM
